In publication PMC2747306 (Structure (London, England : 1993), 2009):

B1: FimX^ΔEAL (residues 1-431: N-terminal response receiver, PAS and GGDEF domains) (domain or fragment)
chain: MAIEKKTIRLLILEDSQNEAERLVSLFRNAGHATRVHRLTSPEDLAETLQQSWDLLIAAPTSECLEPGEALATLRRQSRDIPFIQLVADNSSDAITDALMLGAQDALPQGEDERLVLVANRELAGLAERRARRAAELALREAEKRCQLLLDSSVDAITYVHDGMHIYANRSYMALFGYEDAEELEGLPVIDLIASCDQGAFKDFLKGYQNDQRQTELVCTGVKLDGQEFKARISLSAATYDGEPCIQVVIRGEVDNAELEEKLREVSSQDPVTGLYNRSHFLDLMDAAVQQAVTARKPSTLAYIHLNGYPSLQADHGLSGIDLLLGQLAGLMREQFGEEADLARFGDSIFAALFKGKTPEQAQAALQRLLKKVENHLFELNGRSAQATLSIGVAGLDEKTAKAQDVMNRAHRCADDAARKGGSQIKQYNPA

Tests used:
FimX^EAL = FimX^EAL (Pseudomonas aeruginosa, UniProt Q9HUK6); assay: isothermal titration calorimetry; type: binding
FimX^full-length = FimX^full-length (Pseudomonas aeruginosa, UniProt Q9HUK6); assay: isothermal titration calorimetry; type: binding
AUC = target: the molecule itself; assay: AUC

Molecule	Kd (FimX^EAL)	Kd (FimX^full-length)	stoichiometry N (AUC)
Nc1nc2c(ncn2[C@@H]2O[C@@H]3CO[P@](=O)(O)O[C@H]4[C@@H](O)[C@H](n5cnc6c(=O)[nH]c(N)nc65)O[C@@H]4CO[P@](=O)(O)O[C@H]3[C@H]2O)c(=O)[nH]1 [c-di-GMP]	104 nM	125 nM	
B1			2
